Measurements published in article PMC7822874, “Chemoprotective antimalarials identified through quantitative high-throughput screening of Plasmodium blood and liver stage parasites” (Scientific Reports, 2021).
Where “and” joins values, the source holds several entries; their conditions need not be identical. Identical values can stand only once. Like-named read-outs stand apart in the source and are kept apart here.

Experiments:
[1] = system: T1, Plasmodium falciparum Dd2-attB (parental line), asexual blood stages; experiment: microbe, parasite or virus in culture; set-up: species or system P. falciparum Dd2-attB in human erythrocytes; SYBR Green-I proliferation assay, Dd2-attB parental line, asexual blood stages; details: 72 h; for AC50: Plasmodium falciparum, DD2, Erythrocyte, read-out: Calculated / Average Log AC50 (M), mean of replicates, 72 h (converted); for Calculated / Average Log AC50 (M): mean of replicates, inhibitor
T1 construct: Dd2-attB, the isogenic parental line

[2] = system: T2, Plasmodium falciparum Dd2-attB-ScDHODH (transgenic line expressing yeast DHODH), asexual blood stages; experiment: organism not typed; set-up: replicate k of 3 (each line is one of three independent assays; the three lines of one compound and parasite line follow each other)
T2 construct: Dd2-attB-ScDHODH, the transgenic line that expresses yeast DHODH
Outline: (§1)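 We compare activity in parasites carrying fumarate-using yeast DHODH with that in the parental line; mETC or parasite DHODH inhibitors are bypassed by this enzyme. Data come from three independent assays, analysed by two-sided Student's t-tests.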

[3] = system: T1, Plasmodium falciparum Dd2-attB (parental line), asexual blood stages; experiment: microbe, parasite or virus in culture; set-up: replicate k of 3 (each line is one of three independent assays; the three lines of one compound and parasite line follow each other); details: n = 1; for Individual replicates / Log AC50 (M): 72 h; for AC50: Plasmodium falciparum, DD2, 72 h, read-out: Individual replicates / Log AC50 (converted)
Outline: as §1

[4] = 72 h; n = 1; read-out: Individual replicates / Log AC50 (converted)

| Structure (SMILES) | AC50 [1] [M] | Individual replicates / Log AC50 (M) ([2]; 72 h, n = 1) | AC50 [2, 4] [µM] | Individual replicates / Log AC50 (M) [3] | AC50 [3] [µM] | Calculated / Average Log AC50 (M) [1] [M] | Individual replicates / Log AC50 (M) ([2]; 72 h; n = 1) |
| --- | --- | --- | --- | --- | --- | --- | --- |
| COC(=O)c1ccnc2cc(C(OCCN3CCCCC3)c3ccccc3Cl)sc12 (stereo not drawn) [NCGC00481502-01] | 1.26e-05 | -4.7486 Log AC50 (M) | 17.8 | -5.0486 Log AC50 (M) and -4.8486 Log AC50 (M) | 15.9 |  |  |
| Oc1ccc(CNc2cc(C(F)(F)F)ccn2)c2cccnc12 [NCGC00241027-01] | 1e-05 | -4.8486 Log AC50 (M) | 7.1 | -5.0986 Log AC50 (M) and -5.0486 Log AC50 (M) | 14.2 |  |  |
| CC(C)OC(=O)c1ccnc2cc(C(OCCN3CCCCC3)c3cccc(NC(=O)/C=C/CN(C)C)c3)sc12 (stereo not drawn) [NCGC00493268-01] | 3.3e-06 | -5.4486 Log AC50 (M) and -5.1486 Log AC50 (M) |  | -5.5986 Log AC50 (M) and -5.5486 Log AC50 (M) | 5.03 |  |  |
| O=C(NCCCN1CCCCC1)c1cccc(-c2cc(O)c3ncccc3c2)c1 [NCGC00244529-01] | 1.04e-05 | -4.7986 Log AC50 (M) | 8.94 | -5.0486 Log AC50 (M) | 14.2 |  |  |
| O=C(O)c1ccc(O)c2ncc(NCC3CCCN(CCc4ccccc4)C3)cc12 (stereo not drawn) [NCGC00241759-01] | 1.04e-05 | -4.8486 Log AC50 (M) | 8.94 | -5.0486 Log AC50 (M) | 7.1 |  |  |
| O=C(Cc1ccc(O)cc1)N1CCC2(C1)CN(c1ccccc1)C2 [NCGC00510421-01] | 1.26e-05 | -4.7986 Log AC50 (M) and -4.7486 Log AC50 (M) | 14.2 | -4.9486 Log AC50 (M) | 14.2 |  |  |
| Oc1ccc(/C=C/c2c(F)cccc2F)c2cccnc12 [NCGC00184904-01] | 1e-05 | -4.7486 Log AC50 (M) and -4.7986 Log AC50 (M) |  | -5.0986 Log AC50 (M) and -5.0486 Log AC50 (M) | 14.2 |  |  |
| CCOC(=O)c1ccnc(-c2ncn(C)c2-c2ccc(OC)cc2)c1 [NCGC00409816-01] | 8.94e-06 | -4.9486 Log AC50 (M) and -4.7986 Log AC50 (M) | 7.97 | -5.1986 Log AC50 (M) and -4.8486 Log AC50 (M) and -5.0986 Log AC50 (M) |  |  |  |
| O=C(O)c1ccnc(-n2ncc(C(OCCN3CCCCC3)c3ccccc3Cl)c2-c2cccc(-c3ccccc3)c2)c1 (stereo not drawn) [NCGC00481639-01] |  | -4.9986 Log AC50 (M) and -5.1486 Log AC50 (M) |  | -5.3986 Log AC50 (M) and -5.5986 Log AC50 (M) |  | -5.482 |  |
| O=C(NC1=CC(=O)c2ccccc2C1=O)c1ccccc1 [MLS002693850-02] | 3.56e-06 | -5.5486 Log AC50 (M) and -5.0986 Log AC50 (M) |  | -5.5986 Log AC50 (M) (2×) and -5.1486 Log AC50 (M) |  |  |  |
| COC(=O)c1ccc(O)c2ncc(N3CCN(C)CC3)cc12 [NCGC00241034-01] | 6.09e-06 | -5.2486 Log AC50 (M) and -5.2986 Log AC50 (M) and -4.8486 Log AC50 (M) |  | -5.2986 Log AC50 (M) and -5.0486 Log AC50 (M) | 5.03 |  |  |
| CC(NCCN1CCCCC1)c1cnn(-c2cc(CO)ccn2)c1-c1cccc(-c2ccccc2)c1 (stereo not drawn) [NCGC00479100-01] | 3.99e-06 |  | 8.94 |  | 8.94 |  |  |
| CN(C)CC(C)(C)CNC(=O)c1cccc(-c2cc(O)c3ncccc3c2)c1 [NCGC00244532-01] | 1.17e-05 | -4.7486 Log AC50 (M) and -5.0986 Log AC50 (M) |  | -4.7986 Log AC50 (M) and -5.1486 Log AC50 (M) and -4.8486 Log AC50 (M) |  |  |  |
| O=C(O)c1ccnc(-n2ncc(C(OCCN3CCCCC3)c3ccccc3Cl)c2-c2cccc(-c3ccccc3)c2)c1 (stereo not drawn) [NCGC00481640-01] |  | -4.7986 Log AC50 (M) and -4.8486 Log AC50 (M) |  | -5.0486 Log AC50 (M) and -4.8986 Log AC50 (M) (2×) |  | -4.9486 |  |
| COc1ccc(-n2ncc(C(=O)N3CCc4ccccc4C3)c2C2CCN(C(=O)OC(C)(C)C)CC2)cc1 [NCGC00127123-02] | 7.97e-06 | -4.7986 Log AC50 (M) and -4.8486 Log AC50 (M) | 14.2 | -5.2486 Log AC50 (M) and -4.9986 Log AC50 (M) | 8.94 |  |  |
| O=C(Nc1ccc(O)c2ncccc12)c1ccccc1F [NCGC00184884-01] | 7.38e-06 | -4.8486 Log AC50 (M) and -5.0986 Log AC50 (M) |  | -5.2486 Log AC50 (M) and -4.9486 Log AC50 (M) | 6.33 |  |  |
| O=[S+]([O-])(Nc1ccc(O)c2ncccc12)c1ccccc1F [NCGC00184887-02] | 1e-05 | -4.9486 Log AC50 (M) and -4.8486 Log AC50 (M) |  | -4.8986 Log AC50 (M) and -5.0486 Log AC50 (M) (2×) |  |  |  |
| O=C(O)c1ccncc1Nc1nn(CCN2CCC(F)(F)CC2)c2ccc(F)cc12 [NCGC00384162-01] | 1.93e-05 |  | 17.8 |  | 15.9 |  |  |
| CC(C)(C)OC(=O)NC1CCN(c2cc(-c3ccc(Cl)cc3)[nH]n2)C1 (stereo not drawn) [NCGC00490648-01] | 1.59e-05 |  | 10 |  | 11.3 |  |  |
| COc1ccc(-c2c(-c3cc([N+](=O)[O-])ccn3)ncn2C)cc1 [NCGC00414991-01] | 1.22e-05 | -4.7986 Log AC50 (M) | 8.94 |  | 14.2 |  |  |
| Oc1ccc(COCc2ccccc2)c2cccnc12 [MLS000034722-02] | 1.13e-05 |  | 14.2 | -4.8986 Log AC50 (M) | 8.94 |  | -4.8486 Log AC50 (M) |
| Cc1nn2c(c1-c1ccccc1Oc1ccccc1)N(Cc1ccccc1)CCC2 [NCGC00499717-01] | 1.42e-05 | -4.7986 Log AC50 (M) | 15.9 | -4.9986 Log AC50 (M) and -4.7486 Log AC50 (M) | 15.9 |  |  |
| CN(Cc1ccco1)Cc1ccc(O)c2ncccc12 [NCGC00183374-01] | 1.47e-05 | -4.7986 Log AC50 (M) | 12.6 |  | 8.94 |  |  |
| O=C(O)c1c2ccc(C(=O)N3CCOCC3)cc2n2ccccc12 [NCGC00390822-01] | 2e-06 | -5.5986 Log AC50 (M) | 2.52 | -5.7986 Log AC50 (M) and -5.7486 Log AC50 (M) | 2.83 |  |  |
| COC(=O)c1ccnc2cc(C(OCCN3CCC(F)(F)CC3)c3ccccc3Cl)[nH]c12 (stereo not drawn) [NCGC00408945-01] | 1.42e-05 |  | 15.9 |  | 10 |  |  |
| Oc1ccc(CCc2ccccc2F)c2cccnc12 [NCGC00184905-01] | 1.31e-05 |  | 15.9 | -5.1986 Log AC50 (M) and -4.7486 Log AC50 (M) |  |  |  |
| Cc1ccccc1Nc1c(-c2ccccc2O)nc2sccn12 [NCGC00105919-03] | 1.08e-05 | -4.8486 Log AC50 (M) and -5.0486 Log AC50 (M) | 8.94 | -4.8986 Log AC50 (M) and -5.0986 Log AC50 (M) | 12.6 |  |  |
